Experimental data published in patent US12570682B2, “Method for increasing bulk density of nicotinamide mononucleotide crystal and crystal thereof” (BONTAC BIO-ENGINEERING (SHENZHEN) CO., LTD, priority 2021, dated 2026).
Where two headings read alike, the source gives them in different places.

Tests used:
[1] = loose bulk density measurement of nicotinamide mononucleotide crystals (sieve, weigh, graduated cylinder); type: physicochemical
Description: Bulk densities mentioned below are all loose bulk densities, and specific values are measured by the following method: taking an object to be tested, sieving the object (1.00 mm No. 18), accurately weighing the object, slowly pouring the object into a glass graduated cylinder, scraping the top, recording an apparent volume, and calculating the bulk density; and taking 3 same samples for parallel measurement, recording the readings, and using an average value as a measurement result.

[2] = prior-art crystals (CN108697722A; CN11269505A embodiment data); cited from earlier work
[3] = CN11269505A embodiment data; cited from earlier work
[4] = loose bulk density, average of 3 parallel samples

SMILES: NC(=O)c1ccc[n+]([C@@H]2O[C@H](COP(=O)([O-])O)[C@@H](O)[C@H]2O)c1 [Comparative Example 1, nicotinamide mononucleotide]
- Bulk density [1, 4]: 0.23 g/mL

SMILES: NC(=O)c1ccc[n+]([C@@H]2O[C@H](COP(=O)([O-])O)[C@@H](O)[C@H]2O)c1 [Comparative Example 2, nicotinamide mononucleotide]
- Bulk density [1, 4]: 0.20 g/mL

SMILES: NC(=O)c1ccc[n+]([C@@H]2O[C@H](COP(=O)([O-])O)[C@@H](O)[C@H]2O)c1 [Comparative Example 3, nicotinamide mononucleotide]
- Bulk density [1, 4]: 0.40 g/mL

SMILES: NC(=O)c1ccc[n+]([C@@H]2O[C@H](COP(=O)([O-])O)[C@@H](O)[C@H]2O)c1 [Comparative Example 4, nicotinamide mononucleotide]
- Bulk density [1, 4]: 0.56 g/mL

SMILES: NC(=O)c1ccc[n+]([C@@H]2O[C@H](COP(=O)([O-])O)[C@@H](O)[C@H]2O)c1 [Example 1, nicotinamide mononucleotide]
- Bulk density ([1]; water content of semi-solid 1%, pH 3.5, ethanol, cooling 10° C./h to 10° C.): 1.05 g/mL
- Bulk density ([1]; water content of semi-solid 5%, pH 3.5, ethanol, cooling 10° C./h to 10° C.): 1.03 g/mL
- Bulk density ([1]; water content of semi-solid 10%, pH 3.5, ethanol, cooling 10° C./h to 10° C.): 0.89 g/mL
- Bulk density ([1]; water content of semi-solid 15%, pH 3.5, ethanol, cooling 10° C./h to 10° C.): 0.77 g/mL
- Bulk density ([1]; water content of semi-solid 20%, pH 3.5, ethanol, cooling 10° C./h to 10° C.): 0.67 g/mL
- Bulk density ([1]; water content of semi-solid 25%, pH 3.5, ethanol, cooling 10° C./h to 10° C.): 0.56 g/mL
- Bulk density ([1]; water content of semi-solid 35%, pH 3.5, ethanol, cooling 10° C./h to 10° C.): 0.44 g/mL
- Bulk density ([1]; water content of semi-solid 50%, pH 3.5, ethanol, cooling 10° C./h to 10° C.): 0.33 g/mL
- Bulk density ([1]; water content of semi-solid 75%, pH 3.5, ethanol, cooling 10° C./h to 10° C.): 0.26 g/mL

SMILES: NC(=O)c1ccc[n+]([C@@H]2O[C@H](COP(=O)([O-])O)[C@@H](O)[C@H]2O)c1 [Example 2, nicotinamide mononucleotide]
- Bulk density ([1]; cooling rate 1, crystallization end temperature 10, water content 10%, pH 3.5): 0.93 g/mL
- Bulk density ([1]; cooling rate 1, crystallization end temperature 18, water content 10%, pH 3.5): 0.88 g/mL
- Bulk density ([1]; cooling rate 3, crystallization end temperature 10, water content 10%, pH 3.5): 0.93 g/mL
- Bulk density ([1]; cooling rate 5, crystallization end temperature 5, water content 10%, pH 3.5): 0.92 g/mL
- Bulk density ([1]; cooling rate 5, crystallization end temperature 10, water content 10%, pH 3.5): 0.92 g/mL
- Bulk density ([1]; cooling rate 5, crystallization end temperature 18, water content 10%, pH 3.5): 0.88 g/mL
- Bulk density ([1]; cooling rate 10, crystallization end temperature 5, water content 10%, pH 3.5): 0.88 g/mL
- Bulk density ([1]; cooling rate 10, crystallization end temperature 10, water content 10%, pH 3.5): 0.89 g/mL
- Bulk density ([1]; cooling rate 10, crystallization end temperature 18, water content 10%, pH 3.5): 0.84 g/mL
- Bulk density ([1]; cooling rate 15, crystallization end temperature 8, water content 10%, pH 3.5): 0.84 g/mL
- Bulk density ([1]; cooling rate 15, crystallization end temperature 10, water content 10%, pH 3.5): 0.84 g/mL
- Bulk density ([1]; cooling rate 15, crystallization end temperature 18, water content 10%, pH 3.5): 0.82 g/mL
- Bulk density ([1]; cooling rate 15, crystallization end temperature 25, water content 10%, pH 3.5): 0.34 g/mL
- Bulk density ([1]; cooling rate 20, crystallization end temperature 10, water content 10%, pH 3.5): 0.35 g/mL

SMILES: NC(=O)c1ccc[n+]([C@@H]2O[C@H](COP(=O)([O-])O)[C@@H](O)[C@H]2O)c1 [Example 3, nicotinamide mononucleotide]
- Bulk density ([1]; pH value of aqueous solution of NMN 3.5, water content 10%, cooling 10° C./h to 10° C.): 0.89 g/mL
- Bulk density ([1]; pH value of aqueous solution of NMN 4.5, water content 10%, cooling 10° C./h to 10° C.): 1.08 g/mL
- Bulk density ([1]; pH value of aqueous solution of NMN 5.0, water content 10%, cooling 10° C./h to 10° C.): 1.09 g/mL
- Bulk density ([1]; pH value of aqueous solution of NMN 5.5, water content 10%, cooling 10° C./h to 10° C.): 1.09 g/mL
- Bulk density ([1]; pH value of aqueous solution of NMN 6.0, water content 10%, cooling 10° C./h to 10° C.): 1.07 g/mL
- Bulk density ([1]; pH value of aqueous solution of NMN 6.5, water content 10%, cooling 10° C./h to 10° C.): 1.08 g/mL
- Bulk density ([1]; pH value of aqueous solution of NMN 7.0, water content 10%, cooling 10° C./h to 10° C.): 0.81 g/mL

SMILES: NC(=O)c1ccc[n+]([C@@H]2O[C@H](COP(=O)([O-])O)[C@@H](O)[C@H]2O)c1 [Example 4, nicotinamide mononucleotide]
- Bulk density [1, 4]: 1.02 g/mL

SMILES: NC(=O)c1ccc[n+]([C@@H]2O[C@H](COP(=O)([O-])O)[C@@H](O)[C@H]2O)c1 [Example 5, nicotinamide mononucleotide]
- Bulk density [1, 4]: 1.17 g/mL

SMILES: NC(=O)c1ccc[n+]([C@@H]2O[C@H](COP(=O)([O-])O)[C@@H](O)[C@H]2O)c1 [Example 6, nicotinamide mononucleotide]
- Bulk density [1, 4]: 1.21 g/mL

SMILES: NC(=O)c1ccc[n+]([C@@H]2O[C@H](COP(=O)([O-])O)[C@@H](O)[C@H]2O)c1 [Example 7, nicotinamide mononucleotide]
- Bulk density [1, 4]: 0.95 g/mL

SMILES: NC(=O)c1ccc[n+]([C@@H]2O[C@H](COP(=O)([O-])O)[C@@H](O)[C@H]2O)c1 [Example 8, nicotinamide mononucleotide]
- Bulk density [1, 4]: 1.24 g/mL

SMILES: NC(=O)c1ccc[n+]([C@@H]2O[C@H](COP(=O)([O-])O)[C@@H](O)[C@H]2O)c1 [form 1, β-nicotinamide mononucleotide, reference compound]
- Bulk density [2]: about 0.2 g/ml
- Bulk density ([1]; loose bulk density, average of 3 parallel samples, listed as nicotinamide mononucleotide anhydrous crystal): 0.20 g/mL

SMILES: NC(=O)c1ccc[n+]([C@@H]2O[C@H](COP(=O)([O-])O)[C@@H](O)[C@H]2O)c1 [form 2, β-nicotinamide mononucleotide]
- Bulk density [2]: about 0.2 g/ml

SMILES: NC(=O)c1ccc[n+]([C@@H]2O[C@H](COP(=O)([O-])O)[C@@H](O)[C@H]2O)c1 [high-density NMN, nicotinamide mononucleotide]
- tap density [3]: 0.71 g/mL
- Bulk density [2]: 0.52 g/mL
